Blank lines part the entries; values can stand above or below the compound they belong to.
Tests used:
[1] = Fluorescence assays: fluorogenic turn-on reaction with dienophiles; assay type: physicochemical; conditions: PBS pH 7.4, excitation at 480 nm
Method: All compounds were purified by HPLC and verified by LC-MS prior to quantitative activation experiments. Stock solutions in methanol were diluted into 1.5 mL of the appropriate solvent in a 1 cm×1 cm quartz cuvette. Measurements of solvent and pre-activation emission spectra for baseline values were made in at least triplicate, prior to addition of trans-cyclooctenol or cyclopropene 4 to initiate the fluorogenic reaction. 3-fold additional excess of trans-cyclooctenol and cyclopropene 4 were added for each fluorogenic reaction. Activation ratios were calculated from the peak emission intensity of the reaction product and the corresponding baseline intensity, and all the intensity data was background subtracted. Integration of the area under the emission intensity curves was used to validate the activation ratios.
Fluorescence emission of 2v, 5, 6 are depicted in FIG. 1A. All three compounds were dissolved in 2 μM phosphate-buffered saline (PBS) at pH 7.4. FIG. 5A depicts fluorescence emission of 2v in 2 μM phosphate-buffered saline (PBS) at pH 7.4. FIG. 5B depicts fluorescence emission of 2w, 7, 8. All three compounds were dissolved in 2 μM EtOH solution. […] FIG. 5C depicts fluorescence emission of 2w in 2 μM EtOH solution. FIG. 5D depicts fluorescence emission of 2x, 9, 10. […] FIG. 5E depicts fluorescence emission of 2x in 2 μM EtOH solution.

[2] = test system: A33 antigens on live LS174T human colon carcinoma cells; assay: Live-cell imaging of TCO-antibody pretargeted cells; assay type: cell-based; conditions: 5 μM probe, 30 minutes
Method: FIGS 1A-1D. Depicted in FIG. 1A are fluorescence emission spectra for compound 2v (lowest line) and compound 5 (middle line) and 6 (upper line) in PBS; excitation at 480 nm. FIG. 1B: Figure depicts equimolar solutions of compound 6 and 2v under excitation by a handheld UV lamp. FIGS. 1C-1D: Figures depict Live-cell imaging of LS174T cells. FIG. 1C: Cells were incubated (t=1 h) with 200 nM TCO-conjugated A33 antibodies, washed, and then imaged 30 minutes after the addition of 5 μM 2v. FIG. 1D: Cells lacking TCO were treated with 5 μM 2v for 30 minutes. Scale bar=[…] for both FIGS. 1C and 1D.
Cell culture and labeling. LS174T cells were grown in DMEM media supplemented with 10% fetal bovine serum, 1% L-glutamine, 1% penicillin/streptomycin. Cells were incubated in 5.0% carbon dioxide, 95% humidity at 37° C. The cells were grown in a T-75 tissue culture flask and seeded on a Lab-Tek II chamber slide two days prior to the experiment. A33 antibody (R&D Systems, MN) was modified by incubation with 50 equivalents of trans-cyclooctene NHS ester for 2 hours at room temperature. The A33 antibody was washed three times with 0.1M sodium bicarbonate buffer pH 8.3 using a 30 kDa spin filter before adding the antibody to the cells at a final concentration of 200 nM for 1 hour.
Image acquisition. […]

[3] = Storage and solution stability; assay type: physicochemical; conditions: stored at −20° C. for several months
[4] = Solubility in DMF:PBS during kinetic measurement; assay type: physicochemical; conditions: DMF:PBS at DMF concentrations lower than 80%
Method: FIGS. 3A-3B. (E)-3-substituted-6-styryl-s-tetrazine reaction kinetics. FIG. 3A: Reaction scheme of (E)-cyclooct-4-enol and the series of tetrazines for kinetic characterization. Only one isomer is depicted for 15. FIG. 3B: Tetrazine kinetics were determined by reacting 1 mM tetrazine with an excess (10 mM) of (E)-cyclooct-4-enol in 50% DMF, 50% PBS 1×pH 7.4 buffer at 22° C. Second-order rate constants derived from the data are listed, and the corresponding curves for 2b, 2p, and 11 are shown in FIG. 4A. Tetrazine 2p was reacted in 80% DMF, 20% PBS due to its insolubility at lower DMF concentrations.
A NANODROP™ 2000c (Thermo Scientific) equipped with a cuvette reader and a stirrer was used in the kinetic measurements, and the disappearance of the tetrazine peak absorption around 520 nm was measured over time. Tetrazines at 1 mM were reacted with an excess 10 mM (E)-cyclooct-4-enol with the measurements commencing immediately upon (E)-cyclooct-4-enol addition (FIGS. 3A, 4A-4B). Solution conditions were maintained at 1:1 DMF:PBS pH 7.4 buffer (Sigma Life Science), and all the measurements were done at 22° C. room temperature. Tetrazine peak intensity at each time point was adjusted for background by extrapolation, as in the previous section. Tetrazine peak disappearance is shown as points in FIGS. 4A-4B, with the connecting lines resulting from the nonlinear fits made with Prism 6.0c. […]

SMILES: Cc1nnc(/C=C/c2ccc(C(=O)O)c(-c3c4cc(F)c(=O)cc-4oc4cc(O)c(F)cc34)c2)nn1 [Cmpd 2v]
increase in fluorescence intensity (turn-on) ([1]; after reaction with a TCO): 400 fold
increase in fluorescence intensity (turn-on) ([1]; after reaction with a cyclopropene): 135 fold
background staining ([2]; cells lacking targeted dienophile): negligible background staining
confocal imaging of targeted dienophiles ([2]; cells pretargeted with 200 nM TCO-conjugated A33 antibodies): readily revealed the location of targeted dienophiles

storage stability [3]: without noticeable decomposition
SMILES: Cc1nnc(CCOS(C)(=O)=O)nn1 [Cmpd 1a]

solubility [4]: insolubility
SMILES: C(=C\c1nnc(/C=C/c2ccccc2)nn1)/c1ccccc1 [Cmpd 2p]

Source: patent US20160223559A1, “TETRAZINE-CONTAINING COMPOUNDS AND SYNTHETIC METHODS THEREOF” (The Regents of the University of California, priority 2015, published 2016)
